Experimental data published in the supplement of paper PMC10307832.

Assays:
Assay in all cases: relative viability (nuclei count vs DMSO), 5 days (fraction); higher = more cells survive
[1] = tested on: LU99A
In short: (§1)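 Lung cancer cell lines in 1536-well plates got either a single drug or a fixed anchor-drug dose together with five library-drug doses (not always all listed) in √10 steps, by pin tool, on the day after seeding. Nuclei were counted after 5 days, and relative viability is the treated-to-vehicle ratio of nuclei counts. Values are medians of duplicate plates.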

[2] = tested on: NCI-H322M
In short: as §1

[3] = tested on: NCI-H661
In short: as §1

[4] = tested on: NCI-H1651
In short: as §1

[5] = tested on: LC-2-ad
In short: as §1

[6] = tested on: NCI-H2087
In short: as §1

[7] = tested on: H3255
In short: as §1

[8] = tested on: ChaGo-K-1
In short: as §1

[9] = tested on: LXF-289
In short: as §1

[10] = tested on: PC-3 [JPC-3]
In short: as §1

[11] = tested on: NCI-H1944
In short: as §1

[12] = tested on: NCI-H358
In short: as §1

## COc1cc(N2CCC(C(N)=O)CC2)ccc1Nc1nc(N)c(Cl)c(Nc2ccccc2S(=O)(=O)C(C)C)n1 [HG-5-88-01] + Nc1ncn([C@H]2C[C@H](O)[C@@H](CO)O2)c(=O)n1 [Decitabine] (partner 2 µM)
[1]; first compound 0.04 µM
  relative viability: 0.896
[1]; first compound 0.1265 µM
  relative viability: 0.929
[1]; first compound 0.4 µM
  relative viability: 0.915
[1]; first compound 1.265 µM
  relative viability: 0.93
[1]; first compound 4 µM
  relative viability: 0.839
[2]; first compound 0.04 µM
  relative viability: 0.693
[2]; first compound 0.1265 µM
  relative viability: 0.68
[2]; first compound 0.4 µM
  relative viability: 0.781
[2]; first compound 1.265 µM
  relative viability: 0.483
[2]; first compound 4 µM
  relative viability: 0.706
[3]; first compound 0.04 µM
  relative viability: 0.54
[3]; first compound 0.1265 µM
  relative viability: 0.595
[3]; first compound 0.4 µM
  relative viability: 0.653
[3]; first compound 1.265 µM
  relative viability: 0.515
[3]; first compound 4 µM
  relative viability: 0.56
[4]; first compound 0.04 µM
  relative viability: 0.536
[4]; first compound 0.1265 µM
  relative viability: 0.635
[4]; first compound 0.4 µM
  relative viability: 0.717
[4]; first compound 1.265 µM
  relative viability: 0.581
[4]; first compound 4 µM
  relative viability: 0.714
[5]; first compound 0.04 µM
  relative viability: 0.782
[5]; first compound 0.1265 µM
  relative viability: 0.719
[5]; first compound 0.4 µM
  relative viability: 0.771
[5]; first compound 1.265 µM
  relative viability: 0.814
[5]; first compound 4 µM
  relative viability: 0.855
[6]; first compound 0.04 µM
  relative viability: 0.315
[6]; first compound 0.1265 µM
  relative viability: 0.365
[6]; first compound 0.4 µM
  relative viability: 0.325
[6]; first compound 1.265 µM
  relative viability: 0.246
[6]; first compound 4 µM
  relative viability: 0.242
[7]; first compound 0.04 µM
  relative viability: 0.589
[7]; first compound 0.1265 µM
  relative viability: 0.629
[7]; first compound 0.4 µM
  relative viability: 0.568
[7]; first compound 4 µM
  relative viability: 0.574
[8]; first compound 0.04 µM
  relative viability: 0.524
[8]; first compound 0.1265 µM
  relative viability: 0.515
[8]; first compound 0.4 µM
  relative viability: 0.51
[8]; first compound 1.265 µM
  relative viability: 0.542
[8]; first compound 4 µM
  relative viability: 0.552
[9]; first compound 0.04 µM
  relative viability: 0.324
[9]; first compound 0.1265 µM
  relative viability: 0.402
[9]; first compound 0.4 µM
  relative viability: 0.464
[9]; first compound 1.265 µM
  relative viability: 0.423
[9]; first compound 4 µM
  relative viability: 0.427
[10]; first compound 0.04 µM
  relative viability: 0.762
[10]; first compound 0.1265 µM
  relative viability: 0.826
[10]; first compound 0.4 µM
  relative viability: 0.872
[10]; first compound 1.265 µM
  relative viability: 0.546
[10]; first compound 4 µM
  relative viability: 0.423
[11]; first compound 0.04 µM
  relative viability: 0.398
[11]; first compound 0.1265 µM
  relative viability: 0.417
[11]; first compound 0.4 µM
  relative viability: 0.554
[11]; first compound 1.265 µM
  relative viability: 0.457
[11]; first compound 4 µM
  relative viability: 0.514
[12]; first compound 0.04 µM
  relative viability: 0.208
[12]; first compound 0.1265 µM
  relative viability: 0.229
[12]; first compound 0.4 µM
  relative viability: 0.285
[12]; first compound 1.265 µM
  relative viability: 0.192
